Where a chain is given by its changes, count along the chain named. Numbers in names are those of the source.
Assays:
Ima3p [1] = target: T1, Ima3p (Saccharomyces cerevisiae, UniProt P0CW40); assay: Substrate specificity of purified isomaltase; type: biochemical; conditions: 100 mM substrate (pNPG 5 mM), pH 7, 30 °C; for Specific activities: citrate–potassium phosphate buffer
Ima1p [2] = target: T2, Ima1p (Saccharomyces cerevisiae, UniProt P53051); assay: Substrate specificity of purified isomaltase; type: biochemical; conditions: 100 mM substrate (pNPG 5 mM), pH 7, 30 °C; for Specific activities: citrate–potassium phosphate buffer
T2 sequence (P53051 whole entry): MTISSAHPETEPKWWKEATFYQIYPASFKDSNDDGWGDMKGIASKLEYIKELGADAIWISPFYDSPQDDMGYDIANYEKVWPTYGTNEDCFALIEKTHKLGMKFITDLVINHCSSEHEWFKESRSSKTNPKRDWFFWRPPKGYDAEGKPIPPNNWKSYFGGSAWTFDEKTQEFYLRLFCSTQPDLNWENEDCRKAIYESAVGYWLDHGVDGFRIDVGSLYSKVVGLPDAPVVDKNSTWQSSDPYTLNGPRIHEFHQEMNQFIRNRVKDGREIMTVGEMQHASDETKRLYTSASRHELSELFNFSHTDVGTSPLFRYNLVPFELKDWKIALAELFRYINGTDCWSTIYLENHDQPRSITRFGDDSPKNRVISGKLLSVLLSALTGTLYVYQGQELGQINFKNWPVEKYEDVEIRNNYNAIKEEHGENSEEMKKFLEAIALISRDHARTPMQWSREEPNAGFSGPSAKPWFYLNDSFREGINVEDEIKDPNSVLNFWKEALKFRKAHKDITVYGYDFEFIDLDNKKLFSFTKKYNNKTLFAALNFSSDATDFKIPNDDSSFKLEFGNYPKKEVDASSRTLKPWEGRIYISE

Ima1p [3] = target: T2, Ima1p; assay: Kinetic parameters for selected substrates; type: biochemical; conditions: for Km: affinity constant for the substrate; for Km / kcat: mean ± SEM; for Ki: inhibition by high concentration of substrate
Ima3pR279Q = Ima3pR279Q (Saccharomyces cerevisiae, UniProt P0CW40, R279Q); assay: Substrate specificity of purified isomaltase variant; type: biochemical; conditions: 100 mM substrate (pNPG 5 mM), citrate–potassium phosphate buffer, pH 7, 30 °C
Chain of Ima3pR279Q (P0CW40 whole entry R279Q): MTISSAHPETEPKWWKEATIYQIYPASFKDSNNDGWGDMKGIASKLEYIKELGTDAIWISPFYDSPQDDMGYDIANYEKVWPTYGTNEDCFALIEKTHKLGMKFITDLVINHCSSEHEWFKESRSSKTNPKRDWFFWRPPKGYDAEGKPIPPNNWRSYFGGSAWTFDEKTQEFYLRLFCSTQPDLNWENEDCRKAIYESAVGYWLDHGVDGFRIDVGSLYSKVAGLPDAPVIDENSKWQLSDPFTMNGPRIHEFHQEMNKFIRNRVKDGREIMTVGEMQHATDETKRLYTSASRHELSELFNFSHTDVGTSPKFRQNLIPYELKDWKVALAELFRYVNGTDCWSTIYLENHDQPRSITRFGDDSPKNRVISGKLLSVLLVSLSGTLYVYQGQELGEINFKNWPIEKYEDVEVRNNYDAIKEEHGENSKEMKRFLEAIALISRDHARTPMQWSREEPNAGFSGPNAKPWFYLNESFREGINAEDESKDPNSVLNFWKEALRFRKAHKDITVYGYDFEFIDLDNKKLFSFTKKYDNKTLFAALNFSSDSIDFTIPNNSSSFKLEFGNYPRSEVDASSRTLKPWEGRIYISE

Ima3p [4] = target: T1, Ima3p; assay: Kinetic parameters for selected substrates; type: biochemical; conditions: for Km: affinity constant for the substrate; for Km / kcat: mean ± SEM; for Ki: inhibition by high concentration of substrate
Ima5p [5] = target: T3, Ima5p (Saccharomyces cerevisiae, UniProt P40884); assay: Kinetic parameters for selected substrates; type: biochemical; conditions: for Km: affinity constant for the substrate; for Km / kcat: mean ± SEM; for Ki: inhibition by high concentration of substrate
T3 sequence (P40884 1-581): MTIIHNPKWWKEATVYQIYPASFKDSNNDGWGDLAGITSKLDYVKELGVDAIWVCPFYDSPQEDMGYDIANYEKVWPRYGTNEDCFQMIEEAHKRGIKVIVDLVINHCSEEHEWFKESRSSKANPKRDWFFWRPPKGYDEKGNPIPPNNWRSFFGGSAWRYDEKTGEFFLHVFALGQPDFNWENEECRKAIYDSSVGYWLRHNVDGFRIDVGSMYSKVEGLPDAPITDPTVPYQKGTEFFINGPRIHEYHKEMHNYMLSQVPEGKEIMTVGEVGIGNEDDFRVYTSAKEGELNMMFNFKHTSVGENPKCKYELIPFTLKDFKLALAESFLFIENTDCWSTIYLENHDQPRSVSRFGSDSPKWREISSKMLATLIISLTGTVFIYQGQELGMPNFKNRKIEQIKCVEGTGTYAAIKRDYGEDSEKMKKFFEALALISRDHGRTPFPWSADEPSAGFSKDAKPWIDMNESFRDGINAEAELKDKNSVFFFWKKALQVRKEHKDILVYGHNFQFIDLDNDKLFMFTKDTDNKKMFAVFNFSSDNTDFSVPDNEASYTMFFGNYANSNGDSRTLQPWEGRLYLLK

Ima2p [6] = target: T4, Ima2p (Saccharomyces cerevisiae, UniProt Q08295); assay: Substrate specificity of purified isomaltase; type: biochemical; conditions: 100 mM substrate (pNPG 5 mM), pH 7, 30 °C; for Specific activities: citrate–potassium phosphate buffer
T4 sequence (Q08295 whole entry): as the sequence (P0CW40 whole entry R279Q) above, with T54A, L240P counted along it

Ima3pL240P = Ima3pL240P (Saccharomyces cerevisiae, UniProt P0CW40, L240P); assay: Substrate specificity of purified isomaltase variant; type: biochemical; conditions: 100 mM substrate (pNPG 5 mM), citrate–potassium phosphate buffer, pH 7, 30 °C
Chain of Ima3pL240P (P0CW40 whole entry L240P): as the sequence (P0CW40 whole entry R279Q) above, with L240P, Q279R counted along it

Ima5p [7] = target: T3, Ima5p; assay: Substrate specificity of purified isomaltase; type: biochemical; conditions: 100 mM substrate (pNPG 5 mM), pH 7, 30 °C; for Specific activities: citrate–potassium phosphate buffer
Ima2p [8] = target: T4, Ima2p; assay: Kinetic parameters for selected substrates; type: biochemical; conditions: for Km: affinity constant for the substrate; for Km / kcat: mean ± SEM; for Ki: inhibition by high concentration of substrate
[9] = Thermostability assay: time-dependent heat inactivation, half-life; type: biochemical, Saccharomyces cerevisiae; conditions: pNPG 5 mM, mean ± 2 SEM
[10] = Melting temperature by differential scanning fluorimetry; type: physicochemical, Saccharomyces cerevisiae; conditions: mean ± 2 SEM

Molecule: OC[C@H]1O[C@H](OC[C@H]2OC(O)(CO)[C@@H](O)[C@@H]2O)[C@H](O)[C@@H](O)[C@@H]1O (stereo partly drawn) [Palatinose, O-α-D-Glucosyl-(1→6)-D-fructose]
- Specific activities (Ima3p [1]): 5 µmol/min/mg
- relative activity, velocity on isomaltose set to 100 (Ima3p [1]): 69%
- Specific activities (Ima1p [2]): 52 µmol/min/mg
- relative activity, velocity on isomaltose set to 100 (Ima1p [2]): 87%
- Km (Ima1p [3]): 18 ± 4 mM
- kcat (Ima1p [3]): 78 ± 8 s⁻¹
- Specific activities (Ima3pR279Q): 33 µmol/min/mg
- Km (Ima3p [4]): 7 ± 0.7 mM
- Ki (Ima3p [4]): None
- kcat (Ima3p [4]): 6.0 ± 0.1 s⁻¹
- Km (Ima5p [5]): 12 ± 3 mM
- kcat (Ima5p [5]): 56 ± 5 s⁻¹
- Specific activities (Ima2p [6]): 74 µmol/min/mg
- relative activity, velocity on isomaltose set to 100 (Ima2p [6]): 137%
- Specific activities (Ima3pL240P): 2.8 µmol/min/mg
- Specific activities (Ima5p [7]): 39 µmol/min/mg
- relative activity, velocity on isomaltose set to 100 (Ima5p [7]): 60%
- Km (Ima2p [8]): 11 ± 2 mM
- kcat (Ima2p [8]): 104 ± 6 s⁻¹

Molecule: COC1OC(CO)C(O)C(O)C1O (stereo not drawn) [α-MG, α-Methylglucopyranoside]
- Specific activities (Ima3p [1]): 11 µmol/min/mg
- relative activity, velocity on isomaltose set to 100 (Ima3p [1]): 153%
- Specific activities (Ima1p [2]): 52 µmol/min/mg
- relative activity, velocity on isomaltose set to 100 (Ima1p [2]): 87%
- Km (Ima1p [3]): 27 ± 5 mM
- kcat (Ima1p [3]): 84 ± 8 s⁻¹
- Specific activities (Ima3pR279Q): 50 µmol/min/mg
- Km (Ima3p [4]): 15 ± 2 mM
- Ki (Ima3p [4]): None
- kcat (Ima3p [4]): 14 ± 1 s⁻¹
- Ki (Ima5p [5]): None
- kcat (Ima5p [5]): 0 s⁻¹
- Specific activities (Ima2p [6]): 55 µmol/min/mg
- relative activity, velocity on isomaltose set to 100 (Ima2p [6]): 102%
- Specific activities (Ima3pL240P): 6.5 µmol/min/mg
- Specific activities (Ima5p [7]): 0 (0) μmol/min/mg
- relative activity, velocity on isomaltose set to 100 (Ima5p [7]): 0 (0) %
- Km (Ima2p [8]): 28 ± 6 mM
- kcat (Ima2p [8]): 88 ± 9 s⁻¹

Molecule: OC[C@H]1O[C@H](OC[C@H]2O[C@H](OC[C@H]3OC(O)[C@H](O)[C@@H](O)[C@@H]3O)[C@H](O)[C@@H](O)[C@@H]2O)[C@H](O)[C@@H](O)[C@@H]1O (stereo partly drawn) [Isomaltotriose, O-α-D-Glucosyl-(1→6)-α-D-glucosyl-(1→6)-D-glucose]
- Specific activities (Ima3p [1]): 0 µmol/min/mg
- Specific activities (Ima1p [2]): 7.9 µmol/min/mg
- relative activity, velocity on isomaltose set to 100 (Ima1p [2]): 13%
- Ki (Ima1p [3]): None
- kcat (Ima1p [3]): 21 ± 4 s⁻¹
- Ki (Ima3p [4]): None
- kcat (Ima3p [4]): 0 s⁻¹
- Km (Ima5p [5]): 83 ± 25 mM
- Ki (Ima5p [5]): None
- kcat (Ima5p [5]): 18 ± 3 s⁻¹
- Specific activities (Ima2p [6]): 7.6 µmol/min/mg
- relative activity, velocity on isomaltose set to 100 (Ima2p [6]): 14%
- Specific activities (Ima5p [7]): 8.6 µmol/min/mg
- relative activity, velocity on isomaltose set to 100 (Ima5p [7]): 13%
- Km (Ima2p [8]): 72 ± 16 mM
- Ki (Ima2p [8]): None
- kcat (Ima2p [8]): 15 ± 2 s⁻¹

Molecule: OC[C@H]1O[C@H](OC[C@H]2O[C@H](O[C@H]3[C@H](O)[C@@H](O)C(O)O[C@@H]3CO)[C@H](O)[C@@H](O)[C@@H]2O)[C@H](O)[C@@H](O)[C@@H]1O (stereo partly drawn) [Panose, O-α-D-Glucosyl-(1→6)-α-D-glucosyl-(1→4)-D-glucose]
- Specific activities (Ima3p [1]): 0 µmol/min/mg
- Specific activities (Ima1p [2]): 3.1 µmol/min/mg
- relative activity, velocity on isomaltose set to 100 (Ima1p [2]): 5%
- Km (Ima1p [3]): 82 ± 17 mM
- Ki (Ima1p [3]): None
- kcat (Ima1p [3]): 6.3 ± 0.5 s⁻¹
- Specific activities (Ima3pR279Q): 3.1 µmol/min/mg
- Ki (Ima3p [4]): None
- kcat (Ima3p [4]): 0 s⁻¹
- Km (Ima5p [5]): 82 ± 12 mM
- Ki (Ima5p [5]): None
- kcat (Ima5p [5]): 23 ± 1 s⁻¹
- more activity of Ima5p than Ima1p (Ima5p [5]; whatsoever the panose concentration): 3.5 fold
- Specific activities (Ima2p [6]): 2.9 µmol/min/mg
- relative activity, velocity on isomaltose set to 100 (Ima2p [6]): 5%
- Specific activities (Ima3pL240P): 0 µmol/min/mg
- Specific activities (Ima5p [7]): 11 µmol/min/mg
- relative activity, velocity on isomaltose set to 100 (Ima5p [7]): 17%
- Ki (Ima2p [8]): None
- kcat (Ima2p [8]): 7.7 ± 0.7 s⁻¹

Molecule: OC[C@H]1O[C@H](O[C@@H]2COC(O)(CO)[C@@H](O)[C@@H]2O)[C@H](O)[C@@H](O)[C@@H]1O (stereo partly drawn) [Leucrose, O-α-D-Glucosyl-(1→5)-D-fructose]
- Specific activities (Ima3p [1]): 0 µmol/min/mg
- Specific activities (Ima1p [2]): 8.6 µmol/min/mg
- relative activity, velocity on isomaltose set to 100 (Ima1p [2]): 14%
- Specific activities (Ima3pR279Q): 1.5 µmol/min/mg
- Specific activities (Ima2p [6]): 8.6 µmol/min/mg
- relative activity, velocity on isomaltose set to 100 (Ima2p [6]): 16%
- Specific activities (Ima3pL240P): 0 µmol/min/mg
- Specific activities (Ima5p [7]): 1.1 µmol/min/mg
- relative activity, velocity on isomaltose set to 100 (Ima5p [7]): 2%

B1: Ima5p: isomaltase from S. cerevisiae encoded by IMA5/YJL216C, His-tagged, purified (protein, UniProt P40884 1-581, looked up)
Oligo-1,6-glucosidase IMA5: T3 sequence (P40884 1-581)
modifications: His tag
- t1/2 ([9]; 37 °C): 2.9 ± 0.4 min
- t1/2 ([9]; 40 °C): 0.8 ± 0.1 min
- Tm ([10]; pH 6, DSF): 36.6 ± 0.4 °C
- Tm ([10]; pH 8, DSF): 35.7 ± 0.5 °C

B2: Ima3p: isomaltase from S. cerevisiae encoded by IMA3/YIL172C (identical IMA4), His-tagged, purified (protein, UniProt P0CW41 1-589, looked up)
Oligo-1,6-glucosidase IMA4: MTISSAHPETEPKWWKEATIYQIYPASFKDSNNDGWGDMKGIASKLEYIKELGTDAIWISPFYDSPQDDMGYDIANYEKVWPTYGTNEDCFALIEKTHKLGMKFITDLVINHCSSEHEWFKESRSSKTNPKRDWFFWRPPKGYDAEGKPIPPNNWRSYFGGSAWTFDEKTQEFYLRLFCSTQPDLNWENEDCRKAIYESAVGYWLDHGVDGFRIDVGSLYSKVAGLPDAPVIDENSKWQLSDPFTMNGPRIHEFHQEMNKFIRNRVKDGREIMTVGEMRHATDETKRLYTSASRHELSELFNFSHTDVGTSPKFRQNLIPYELKDWKVALAELFRYVNGTDCWSTIYLENHDQPRSITRFGDDSPKNRVISGKLLSVLLVSLSGTLYVYQGQELGEINFKNWPIEKYEDVEVRNNYDAIKEEHGENSKEMKRFLEAIALISRDHARTPMQWSREEPNAGFSGPNAKPWFYLNESFREGINAEDESKDPNSVLNFWKEALRFRKAHKDITVYGYDFEFIDLDNKKLFSFTKKYDNKTLFAALNFSSDSIDFTIPNNSSSFKLEFGNYPRSEVDASSRTLKPWEGRIYISE
modifications: His tag
- t1/2 ([9]; 37 °C): 23.2 ± 1.4 min
- t1/2 ([9]; 40 °C): 7.6 ± 0.9 min
- t1/2 ([9]; 42 °C): 2.9 ± 0.5 min
- Tm ([10]; pH 6, DSF): 47.0 ± 0.3 °C
- Tm ([10]; pH 7, DSF): 38.8 ± 0.5 °C
- Tm ([10]; pH 8, DSF): 29.9 ± 0.3 °C

B3: Ima3p_R279Q: Ima3p variant with R279Q mutation (protein, UniProt P0CW40 1-589, looked up, variant R279Q)
Oligo-1,6-glucosidase IMA3: B2 Oligo-1,6-glucosidase IMA4 with R279Q
- t1/2 ([9]; 37 °C): 9.5 ± 1.7 min
- t1/2 ([9]; 40 °C): 2.0 ± 0.3 min
- Tm ([10]; pH 7, DSF): 37.6 ± 0.8 °C

From paper PMC3953731 (FEBS Open Bio, 2014)
